The values that follow come from patent US10302632B2, “Macromolecular conjugates for visualization and separation of proteins and cells” (USTAV ORGANICKE CHEMIE A BIOCHEMIE AV CR, V.V.I., priority 2015, dated 2019).

Test [1] concerns the target T1, recombinant extracellular GCPII (Avi-GCPII) (Homo sapiens, UniProt Q04609).
T1 construct: using a recombinant extracellular GCPII (Avi-GCPII; prepared according to [13]); Avi-tag; made in house
Description: Inhibition of GCPII hydrolytic activity (HPLC assay). The format is biochemical. The protocol:
Inhibitory potency of the inhibitors and polymeric conjugates on the hydrolytic activity of GCPII were tested by HPLC (described in [12]) using a recombinant extracellular GCPII (Avi-GCPII; prepared according to [13]). 210 pg of GCPII was mixed with a solution of 25 mM Bis-Tris propane, 150 mM NaCl, pH 7.4, 0.001% monododecyl(oktaethylenglycol)ether (Affymetrix, Octaethylene glycol monododecyl ether) and inhibitor solution to a total volume of 180 μl in a 96-well plate. Ten different inhibitor concentrations covering the whole inhibition curve were used. Reactions were first incubated 5 min at 37° C., then initiated by addition of 20 μl of pteroyl-bis(L-glutamate) to a final concentration of 400 nM and incubated at 37° C. for 20 min. […] Subsequently, 100 μl of the reaction mixture was analyzed in Agilent 1200 Infinity (Agilent Technologies, Inc.) on an RP-HPLC column Waters Acquity UPLC HSS T3 1.8 μm, 2.1×100 mm (Waters). HPLC analysis was performed isocratically in 2.7% acetonitrile and 97.3% 20 mM phosphate, pH 6.0. Substrate and product absorbance was measured at 281 nm. IC50 values were obtained from GraFit v.5.0.11 (Erithacus Software Ltd.).
Assuming competitive type of inhibition and using the values of KM and kcat, the Ki values for each inhibitor were determined from the Cheng-Prusoff equation [14].

The target of a further test is T2, HIV-1 protease (Human immunodeficiency virus type 1 group M subtype B, UniProt P04585).
T2 construct: HIV-1 protease is a homodimeric aspartic protease
Description: Inhibition of HIV-1 protease activity (spectrophotometric, chromogenic peptide substrate). The format is biochemical. The settings on record: pH 4.7, substrate 16 μM. The method, then: The inhibition analyses were performed by spectrophotometric assay using the chromogenic peptide substrate KARVNle*NphEANle-NH2 as previously described.
The 1 ml reaction mixture contained 100 mM sodium acetate, 300 mM NaCl, pH 4.7, 6.8 pmol of HIV-1 protease and inhibitor in concentrations ranging between 2 and 130 nM. Substrate was added to a final concentration of 16 μM. Afterwards, the hydrolysis of substrate was followed as a decrease in absorbance at 305 nm using a UNICAM UV500 UV-VIS spectrophotometer (Thermo, Cambridge, Mass.). The data were analyzed using the equation for competitive inhibition according to Williams and Morrison. The mechanism of inhibition was determined by analysis of Lineweaver-Burk plots.

The target of another test is CA-IX (Homo sapiens, UniProt Q16790). Description: Affinity isolation (pull-down) of CA-IX from HT-29 cell lysate. The format is binding. Details: HT-29 cell line endogenously expressing CA-IX; endogenous in cells; host or cells: HT-29. The settings on record: conjugate on Streptavidin Sepharose, Western blot. The method, then:
HT29 cells (cultured in 100 mm Petri dish) endogenously expressing CA-IX were lysed by sonication in a water bath (3 min/0° C.) in 450 μl of 50 mM Tris-HCl, 150 mM NaCl, pH 7.4, 1% Tween 20. Resulting cell lysate was further diluted in 20 mM Tris-HCl, 150 mM NaCl, 0.1% Tween 20, pH 7.4 (TBST) to a final protein concentration of 360 μg/ml. Meanwhile, Conjugate 3 and Conjugate 2 (negative control showing nonspecific binding) were pre-bound to 25 μl of Streptavidin Sepharose (200 nM solution in 200 μl of TBST, 1 hour, 6° C.), and after washing with 3×200 μl TBST, the resin was mixed with 200 μl of HT-29 cell lysate and incubated at 25° C. for 3 hours. The resin was then washed with 3×200 μl of TBST and subsequently, proteins were eluted with 25 μl of sample buffer for SDS-PAGE and with heating to 98° C. for 10 min.
To compare the effectiveness of CA-IX isolation with Conjugate 3, CA-IX was also isolated with M75 antibody. The experiment was performed analogously to experiment with polymeric conjugates: 1 μg of antibody was pre-bound to 20 μl of Protein G Sepharose the procedure followed as described above. […]
After isolation, samples were separated by SDS-PAGE electrophoresis and the gel was blotted to a nitrocellulose membrane (wet blot 100 V/1 hour). […] Chemiluminescence was recorded with ChemiDoc It™ 600 Imaging System (UVP).
(In western blotting, separated proteins are transferred to a membrane and probed.)

The mark [2] stands for this setting: read-out: Ki [nM] towards HIV-1 protease.

Like-named read-outs stand apart in the source and are kept apart here. Square brackets hold non-standard residues; d marks the D form. Peptide text beside a SMILES is read from it. Sta = CC(C)C[C@H](N)[C@@H](O)CC(=O)O; AEEA = NCCOCCOCC(=O)O

T1 sequence (Q04609 44-750 limits assumed): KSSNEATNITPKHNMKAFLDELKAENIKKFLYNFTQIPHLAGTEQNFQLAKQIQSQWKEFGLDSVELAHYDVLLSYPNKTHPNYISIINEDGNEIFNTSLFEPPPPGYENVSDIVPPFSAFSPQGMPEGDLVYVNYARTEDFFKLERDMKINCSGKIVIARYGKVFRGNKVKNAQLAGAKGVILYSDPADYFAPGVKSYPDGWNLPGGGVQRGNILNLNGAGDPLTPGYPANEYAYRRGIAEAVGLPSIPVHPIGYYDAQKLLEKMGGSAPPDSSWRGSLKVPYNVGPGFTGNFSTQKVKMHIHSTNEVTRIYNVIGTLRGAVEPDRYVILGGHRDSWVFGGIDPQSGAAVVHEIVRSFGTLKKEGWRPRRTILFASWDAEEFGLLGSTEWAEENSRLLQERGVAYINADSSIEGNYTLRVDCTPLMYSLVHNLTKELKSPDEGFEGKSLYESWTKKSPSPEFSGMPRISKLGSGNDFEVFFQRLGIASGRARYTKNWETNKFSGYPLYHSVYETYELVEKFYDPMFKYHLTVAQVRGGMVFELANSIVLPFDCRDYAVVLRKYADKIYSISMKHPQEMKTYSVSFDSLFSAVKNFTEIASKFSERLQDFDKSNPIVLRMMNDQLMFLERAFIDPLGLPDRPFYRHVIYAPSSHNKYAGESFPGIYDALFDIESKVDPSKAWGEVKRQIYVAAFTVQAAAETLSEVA

Regarding `NCCOCCOCCOCCOCCOCCC(=O)N(CCCC[C@H](NC(=O)N[C@@H](CCC(=O)O)C(=O)O)C(=O)O)Cc1ccc(Br)cc1` [Compound A, (24S,28S)-19-(4-bromobenzyl)-24,28,30-tricarboxy-18,26-dioxo-3,6,9,12,15-pentaoxa-19,25,27-triazatriakontan-1-aminium 2,2,2-trifluoroacetate], in test [1], the inhibition constant Ki (commonly the dissociation constant of the complex between target and ligand, obtained from inhibition or displacement) was determined as 2030 pM.
Take `CC(C)[C@H](NC(=O)COCCOCCNC(=O)COCCOCCN)C(=O)N[C@@H](Cc1ccccc1)C[C@H](O)[C@H](Cc1ccccc1)NC(=O)OCc1cncs1` [compound C, (5S,6S,8S,11S)-5,8-dibenzyl-6-hydroxy-11-isopropyl-3,10,13,22-tetraoxo-1-(thiazol-5-yl)-2,15,18,24,27-pentaoxa-4,9,12,21-tetraazanonacosan-29-aminium 2,2,2-trifluoroacetate]: the Ki on HIV-1 protease (setting [2]) was determined as 0.012 ± 0.001 nM; at HIV-1 protease (read-out: Ki towards HIV-1 protease), 0.013 nM.
Turning to `CC(C)C[C@H](NC(=O)[C@H](C)NC(=O)C[C@H](O)[C@H](CC(C)C)NC(=O)[C@@H](NC(=O)[C@@H](NC(=O)COCCOCCNC(=O)COCCOCCN)C(C)C)C(C)C)[C@@H](O)CC(=O)O` [compound D, (19S,22S,25S,26S,30S,33S)-33-((S)-2-carboxy-1-hydroxyethyl)-26-hydroxy-25-isobutyl-19,22-diisopropyl-30,35-dimethyl-8,17,20,23,28,31-hexaoxo-3,6,12,15-tetraoxa-9,18,21,24,29,32-hexaazahexatriacontan-1-aminium] (H-[AEEA][AEEA]VV[Sta]A[Sta]-OH), the Ki on HIV-1 protease (setting [2]) came out at 590 nM.
In the case of “poly(HPMA-co-Ma-β-Ala-ATTO488-co-Ma-β-Ala-NH-biotin) [Conjugate 2]”, the “inhibition of the activity of GCPII” value in test [1] was “did not inhibit the activity of GCPII”. The “affinity isolation / binding of CA-IX from lysate of HT-29 cells” value on CA-IX was “no binding of CA-IX”.
